The values below come from ChEMBL document CHEMBL1133080, “Substituted 5,7-diphenyl-pyrrolo[2,3d]pyrimidines: potent inhibitors of the tyrosine kinase c-Src” (Bioorg Med Chem Lett, 2000).

Assay [1] addresses T1, Epidermal growth factor receptor (Homo sapiens, UniProt P00533). Nature of the assay: Tested for inhibition of EGF-receptor tyrosine kinase in intact cells.
In assay [2] the target is T1, Epidermal growth factor receptor. The experiment in a line: Tested in vitro for inhibition of EGF-receptor tyrosine kinase.
Assay [3] addresses Vascular endothelial growth factor receptor 2 (Homo sapiens, UniProt P35968). Nature of the assay: Tested in vitro for inhibition of KDR-receptor tyrosine kinase.
Assay [4] has as its target Platelet-derived growth factor receptor (Mus musculus, UniProt P05622+P26618). Nature of the assay: Inhibition of PDGF-receptor kinase. The assay is classed as protein-complex assay.
Assay [5] deals with T2, Proto-oncogene tyrosine-protein kinase Src (Gallus gallus, UniProt P00523). The experiment in a line: Tested for inhibition of protein tyrosine kinase c-Src phosphorylation.
The target of assay [6] is Tyrosine-protein kinase CSK (Homo sapiens, UniProt P41240). Nature of the assay: Tested for inhibition of protein tyrosine kinase Csk phosphorylation in intact cells. Format: cell-based.
Tyrosine-protein kinase CSK, sequence (P41240 whole entry): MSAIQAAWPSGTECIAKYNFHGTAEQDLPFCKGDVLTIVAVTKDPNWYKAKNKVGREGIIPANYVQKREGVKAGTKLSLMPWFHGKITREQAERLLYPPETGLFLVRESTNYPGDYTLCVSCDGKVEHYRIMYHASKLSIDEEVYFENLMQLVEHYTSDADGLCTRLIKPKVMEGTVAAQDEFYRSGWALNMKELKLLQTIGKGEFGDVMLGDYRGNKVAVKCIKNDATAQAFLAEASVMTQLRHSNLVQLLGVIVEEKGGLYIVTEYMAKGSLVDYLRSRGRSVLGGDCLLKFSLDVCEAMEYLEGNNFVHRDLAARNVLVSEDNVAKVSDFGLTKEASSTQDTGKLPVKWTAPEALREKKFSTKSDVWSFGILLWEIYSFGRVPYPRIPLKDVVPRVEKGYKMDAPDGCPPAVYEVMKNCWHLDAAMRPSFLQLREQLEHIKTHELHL
Assay [7] has as its target Cyclin-dependent kinase 1 (Homo sapiens, UniProt P06493). The experiment in a line: Tested in vitro for inhibition of serine/threonine kinase Cdc2.
Assay [8] has as its target Tyrosine-protein kinase ABL (Homo sapiens, UniProt P00519+P42684). The experiment in a line: Tested in vitro for inhibition of non-receptor tyrosine kinase v-Abl. The assay is classed as protein assay.
In assay [9] the target is Proto-oncogene tyrosine-protein kinase Src (Gallus gallus) (UniProt P00523). Nature of the assay: Tested for inhibition of protein tyrosine kinase c-Src phosphorylation in intact cells.
The target of assay [10] is T2, Proto-oncogene tyrosine-protein kinase Src. The experiment in a line: Inhibition of protein tyrosine kinase c-Src.

Cyclin-dependent kinase 1, sequence (P06493 whole entry): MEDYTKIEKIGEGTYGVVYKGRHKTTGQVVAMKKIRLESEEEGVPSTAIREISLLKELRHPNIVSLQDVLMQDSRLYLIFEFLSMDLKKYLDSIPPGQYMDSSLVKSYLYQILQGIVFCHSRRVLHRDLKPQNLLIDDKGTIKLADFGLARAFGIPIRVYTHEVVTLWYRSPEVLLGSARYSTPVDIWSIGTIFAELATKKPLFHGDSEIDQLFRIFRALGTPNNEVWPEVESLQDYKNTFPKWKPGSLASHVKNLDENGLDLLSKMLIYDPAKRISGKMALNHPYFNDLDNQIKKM
Vascular endothelial growth factor receptor 2, sequence (P35968 whole entry): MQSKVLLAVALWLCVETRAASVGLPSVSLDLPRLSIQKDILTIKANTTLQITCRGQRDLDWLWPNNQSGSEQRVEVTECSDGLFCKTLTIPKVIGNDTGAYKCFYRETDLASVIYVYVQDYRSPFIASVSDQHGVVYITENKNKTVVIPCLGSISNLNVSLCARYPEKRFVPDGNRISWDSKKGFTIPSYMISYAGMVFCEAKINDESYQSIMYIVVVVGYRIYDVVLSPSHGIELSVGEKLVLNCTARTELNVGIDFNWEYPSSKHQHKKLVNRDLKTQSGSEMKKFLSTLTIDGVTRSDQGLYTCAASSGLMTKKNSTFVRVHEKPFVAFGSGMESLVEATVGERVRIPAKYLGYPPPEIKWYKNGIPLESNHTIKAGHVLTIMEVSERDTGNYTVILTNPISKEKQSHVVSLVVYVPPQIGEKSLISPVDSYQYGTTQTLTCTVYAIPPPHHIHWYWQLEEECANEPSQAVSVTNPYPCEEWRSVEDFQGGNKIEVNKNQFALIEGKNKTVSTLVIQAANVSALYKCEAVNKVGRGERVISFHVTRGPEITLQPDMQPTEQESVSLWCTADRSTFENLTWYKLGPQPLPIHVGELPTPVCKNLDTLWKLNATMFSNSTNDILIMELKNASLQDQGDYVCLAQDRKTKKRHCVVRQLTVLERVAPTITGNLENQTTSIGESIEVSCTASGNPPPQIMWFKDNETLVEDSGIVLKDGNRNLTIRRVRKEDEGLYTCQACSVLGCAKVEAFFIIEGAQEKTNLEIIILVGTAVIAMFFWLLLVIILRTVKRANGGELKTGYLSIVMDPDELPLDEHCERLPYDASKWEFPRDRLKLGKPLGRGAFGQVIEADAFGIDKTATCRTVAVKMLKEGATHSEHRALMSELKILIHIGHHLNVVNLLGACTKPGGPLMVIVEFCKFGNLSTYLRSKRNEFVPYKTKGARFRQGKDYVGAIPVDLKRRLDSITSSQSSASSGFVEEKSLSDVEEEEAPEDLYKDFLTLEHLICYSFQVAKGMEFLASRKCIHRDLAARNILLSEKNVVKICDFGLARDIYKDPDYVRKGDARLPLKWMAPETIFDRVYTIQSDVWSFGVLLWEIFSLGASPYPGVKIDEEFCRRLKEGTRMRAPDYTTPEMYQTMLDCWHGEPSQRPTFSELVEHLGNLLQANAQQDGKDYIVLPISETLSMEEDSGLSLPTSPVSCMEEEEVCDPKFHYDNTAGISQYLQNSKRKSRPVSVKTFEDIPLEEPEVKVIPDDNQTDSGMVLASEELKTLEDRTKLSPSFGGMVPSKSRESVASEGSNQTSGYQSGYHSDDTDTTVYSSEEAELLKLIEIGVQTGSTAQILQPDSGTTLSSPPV
T1 sequence (P00533 whole entry): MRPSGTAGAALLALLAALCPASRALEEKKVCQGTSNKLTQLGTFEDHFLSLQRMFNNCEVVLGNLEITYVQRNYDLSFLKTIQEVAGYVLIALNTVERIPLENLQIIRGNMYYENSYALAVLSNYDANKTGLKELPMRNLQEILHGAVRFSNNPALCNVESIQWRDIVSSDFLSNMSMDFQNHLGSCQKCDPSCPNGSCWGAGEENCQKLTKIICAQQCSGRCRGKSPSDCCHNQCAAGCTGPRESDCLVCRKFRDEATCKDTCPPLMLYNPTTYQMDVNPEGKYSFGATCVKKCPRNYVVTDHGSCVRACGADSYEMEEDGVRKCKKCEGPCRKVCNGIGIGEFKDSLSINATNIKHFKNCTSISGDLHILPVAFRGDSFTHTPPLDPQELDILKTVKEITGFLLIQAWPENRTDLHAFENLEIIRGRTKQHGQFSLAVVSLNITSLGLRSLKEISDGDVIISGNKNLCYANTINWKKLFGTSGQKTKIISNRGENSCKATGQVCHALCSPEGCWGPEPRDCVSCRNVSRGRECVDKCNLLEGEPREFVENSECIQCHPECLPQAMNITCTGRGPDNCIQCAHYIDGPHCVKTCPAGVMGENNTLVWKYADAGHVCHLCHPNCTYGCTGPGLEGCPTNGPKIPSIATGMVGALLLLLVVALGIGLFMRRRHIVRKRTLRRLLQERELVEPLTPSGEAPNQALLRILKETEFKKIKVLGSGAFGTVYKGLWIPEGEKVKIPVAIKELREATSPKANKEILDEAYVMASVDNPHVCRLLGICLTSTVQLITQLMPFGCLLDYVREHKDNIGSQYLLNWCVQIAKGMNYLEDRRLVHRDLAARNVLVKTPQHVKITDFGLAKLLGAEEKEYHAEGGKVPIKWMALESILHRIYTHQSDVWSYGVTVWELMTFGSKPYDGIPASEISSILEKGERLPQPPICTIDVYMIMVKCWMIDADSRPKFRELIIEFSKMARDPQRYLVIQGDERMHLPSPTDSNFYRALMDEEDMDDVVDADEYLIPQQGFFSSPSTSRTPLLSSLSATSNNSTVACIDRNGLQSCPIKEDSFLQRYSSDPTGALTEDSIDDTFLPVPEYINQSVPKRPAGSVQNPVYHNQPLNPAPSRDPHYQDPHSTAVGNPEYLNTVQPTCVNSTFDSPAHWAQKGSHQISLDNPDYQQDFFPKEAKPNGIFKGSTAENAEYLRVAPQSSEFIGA

One may read the IC50 as the concentration at which inhibition is half-maximal. With `COc1cccc(-c2cn(-c3ccc(CCN(C)CCO)cc3)c3ncnc(N)c23)c1`, the IC50 in assay [1] is 10000 nM; in assay [2], 300 nM; in assay [3], > 1000 nM; in assay [4], 300 nM; in [5] it was 30 nM; in assay [6], > 5000 nM. Further, the IC50 was > 10000 nM in assay [7], 300 nM in assay [8] and 200 nM in assay [9].

As for `Nc1ncnc2c1c(-c1ccccc1)nn2-c1ccccc1`, in assay [10], half-maximal inhibition (IC50) was put at 500 nM.

Turning to `Nc1ncnc2c1c(-c1ccccc1)cn2-c1ccccc1`, the half-inhibitory concentration (IC50) in [5] was 100 nM; in assay [6] it was > 5000 nM; in assay [7] it was 54000 nM; in [8], 20 nM; in [9], 3500 nM.

Regarding `COc1cccc(-c2cn(-c3ccccc3)c3ncnc(N)c23)c1`, the IC50 was > 1000 nM in assay [3]; 2500 nM in assay [4]; 50 nM in assay [5]; > 5000 nM in assay [6]; 43000 nM in assay [7]; 60 nM in assay [8]. Besides, the IC50 in [9] stood at 3300 nM.

`Nc1ncnc2c1c(-c1ccccc1)cn2-c1ccc(CNCCO)cc1`: the IC50 in [2] is 1400 nM; in assay [5] it was 30 nM; in assay [6], 4300 nM; in [7], 82500 nM; in assay [8], 1000 nM; in [9], 700 nM.

As for `O=c1[nH]cnc2c1c(-c1ccccc1)cn2-c1ccccc1`, the IC50 in [5] worked out at 10000 nM. This lies in the double-digit micromolar range.

`Nc1ncnc2c1c(-c1ccccc1)cn2-c1cccc(CO)c1`: the IC50 in [1] was 12000 nM; in [2], 600 nM; in [4], 10000 nM; in assay [5] it was 60 nM; in assay [6] it was > 5000 nM; in assay [7], 47000 nM. Besides, the values for the IC50 in assay [8] and in assay [9] were 200 nM and > 5000 nM, respectively.

On to `Cc1ccccc1-c1cn(-c2ccccc2)c2ncnc(N)c12`, for which the half-maximal inhibitory concentration (IC50) was 2650 nM in assay [2], 6000 nM in [5] and 90000 nM in [7].

As for `COc1cccc(-c2cn(-c3ccc(CC(=O)NCCO)cc3)c3ncnc(N)c23)c1`, the IC50 is 800 nM in assay [2]; > 1000 nM in assay [3]; 20 nM in assay [5]; > 5000 nM in assay [6]; > 10000 nM in [7]; 220 nM in assay [8]. Further, the IC50 in assay [9] amounted to 3900 nM.

With `Nc1ncnc2c1c(-c1cccc(Cl)c1)cn2-c1ccccc1`, the half-inhibitory concentration (IC50) in [2] is 700 nM; in assay [3] it was 1000 nM; in assay [5] it was 200 nM; in assay [7] it was > 100000 nM; in [8] it was 600 nM.

As to `Nc1ncnc2c1c(-c1ccccc1)cn2-c1ccccc1CNCCO`, the half-maximal inhibitory concentration (IC50) in assay [2] is 6400 nM; in [5] it was 5000 nM; in assay [7] it was > 10000 nM.

Consider `Nc1ncnc2c1c(-c1ccccc1)cn2-c1cccc(CNCCO)c1`, for which the IC50 in [2] is 3400 nM; in [3] it was 3600 nM; in assay [5], 10 nM; in assay [6] it was 5000 nM; in assay [7] it was > 10000 nM; in assay [9], 4000 nM.

With `COc1ccc(-c2cn(-c3ccccc3)c3ncnc(N)c23)cc1`, the IC50 in assay [2] was 350 nM; in assay [3], 200 nM; in [5] it was 150 nM; in assay [7], > 10000 nM; in [8], 400 nM.

Take `COc1cccc(-c2cn(-c3cccc(CO)c3)c3ncnc(N)c23)c1`: the IC50 in assay [2] was 800 nM; in [3] it was > 1000 nM; in [5], 60 nM; in [7], 33000 nM; in assay [8] it was 50 nM.

With `CNc1ncnc2c1c(-c1ccccc1)cn2-c1ccccc1`, the IC50 in assay [2] is 31000 nM; in assay [5] it was > 10000 nM; in [7], > 10000 nM; in assay [8], > 10000 nM.

For the compound `Nc1ncnc2c1c(-c1ccccc1)cn2-c1ccc(CO)cc1`, the IC50 in assay [2] came out at 700 nM; in [3], 600 nM; in [5], 20 nM; in assay [7], 30000 nM; in assay [8], 70 nM.

As for `CCOC(=O)c1ccc(-c2cn(-c3ccccc3)c3ncnc(N)c23)cc1`, the IC50 in assay [2] is 1300 nM; in assay [3] it was 1100 nM; in assay [5], 10000 nM; in assay [7], > 10000 nM; in assay [8], > 10000 nM.

For the compound `COc1cccc(-c2cn(-c3ccc(CNCCO)cc3)c3ncnc(N)c23)c1`, the IC50 is 6400 nM in assay [1]; 300 nM in assay [2]; > 1000 nM in assay [3]; 600 nM in assay [4]; 30 nM in assay [5]; > 5000 nM in assay [6]. Also, the IC50 is > 10000 nM in [7], 230 nM in [8] and 500 nM in assay [9].

As for `Clc1ncnc2c1c(-c1ccccc1)cn2-c1ccccc1`, the midpoint of inhibition in assay [5], the IC50, lay at 8000 nM.

Take `Nc1ncnc2c1c(-c1ccccc1)cn2-c1ccccc1CO`: the 50% inhibitory concentration (IC50) in [2] is 1100 nM; in [5], 300 nM; in [7] it was > 10000 nM; in [8], 3400 nM.
